From the NIST ThermoML archive (doi:10.1021/acs.jced.8b00554)

What was measured:
[1] = refractive index (Na D-line) (dimensionless); conditions: 293.15 K; 101.33 kPa; Liquid; Standard Abbe refractometry
[2] = Liquid, Vibrating tube method

CCCO [propan-1-ol]
Conditions | refractive index
[1] | 1.3852

[2]
Conditions | mass density [kg/m3]
313.15 K, 100 kPa | 787.65
313.15 K, 1020 kPa | 788.65
313.15 K, 2000 kPa | 789.51
313.15 K, 3010 kPa | 790.39
313.15 K, 4020 kPa | 791.23
313.15 K, 5020 kPa | 792.09
313.15 K, 6010 kPa | 792.93
313.15 K, 7020 kPa | 793.75
313.15 K, 8030 kPa | 794.57
313.15 K, 9010 kPa | 795.39
313.15 K, 10020 kPa | 796.2
313.15 K, 11010 kPa | 796.99
313.15 K, 12020 kPa | 797.79
313.15 K, 13010 kPa | 798.57
313.15 K, 14020 kPa | 799.35
313.15 K, 15030 kPa | 800.12
313.15 K, 16010 kPa | 800.88
313.15 K, 17020 kPa | 801.63
313.15 K, 18010 kPa | 802.39
313.15 K, 19020 kPa | 803.13
313.15 K, 20010 kPa | 803.87
323.15 K, 100 kPa | 779.29
323.15 K, 1020 kPa | 780.33
323.15 K, 2020 kPa | 781.26
323.15 K, 3010 kPa | 782.17
323.15 K, 4030 kPa | 783.07
323.15 K, 5010 kPa | 783.96
323.15 K, 6010 kPa | 784.85
323.15 K, 7000 kPa | 785.72
323.15 K, 8010 kPa | 786.58
323.15 K, 9020 kPa | 787.44
323.15 K, 10030 kPa | 788.29
323.15 K, 11020 kPa | 789.12
323.15 K, 12010 kPa | 789.95
323.15 K, 13020 kPa | 790.78
323.15 K, 14030 kPa | 791.59
323.15 K, 15030 kPa | 792.41
323.15 K, 16000 kPa | 793.2
323.15 K, 17010 kPa | 794
323.15 K, 18030 kPa | 794.78
323.15 K, 19030 kPa | 795.56
323.15 K, 20020 kPa | 796.33
333.15 K, 100 kPa | 770.58
333.15 K, 1030 kPa | 771.74
333.15 K, 2020 kPa | 772.72
333.15 K, 3020 kPa | 773.69
333.15 K, 4030 kPa | 774.64
333.15 K, 5020 kPa | 775.59
333.15 K, 6020 kPa | 776.52
333.15 K, 7010 kPa | 777.45
333.15 K, 8020 kPa | 778.36
333.15 K, 9010 kPa | 779.27
333.15 K, 10030 kPa | 780.16
333.15 K, 11020 kPa | 781.05
333.15 K, 12030 kPa | 781.93
333.15 K, 13010 kPa | 782.79
333.15 K, 14030 kPa | 783.65
333.15 K, 15030 kPa | 784.5
333.15 K, 16000 kPa | 785.34
333.15 K, 17030 kPa | 786.17
333.15 K, 18010 kPa | 787
333.15 K, 19020 kPa | 787.81
333.15 K, 20000 kPa | 788.62
343.15 K, 100 kPa | 761.6
343.15 K, 1010 kPa | 762.86
343.15 K, 2020 kPa | 763.91
343.15 K, 3000 kPa | 764.93
343.15 K, 4020 kPa | 765.95
343.15 K, 5020 kPa | 766.96
343.15 K, 6020 kPa | 767.95
343.15 K, 7030 kPa | 768.93
343.15 K, 8020 kPa | 769.91
343.15 K, 9000 kPa | 770.86
343.15 K, 10020 kPa | 771.81
343.15 K, 11030 kPa | 772.74
343.15 K, 12020 kPa | 773.67
343.15 K, 13010 kPa | 774.59
343.15 K, 14000 kPa | 775.49
343.15 K, 15010 kPa | 776.39
343.15 K, 16020 kPa | 777.28
343.15 K, 17020 kPa | 778.16
343.15 K, 18000 kPa | 779.02
343.15 K, 19020 kPa | 779.89
343.15 K, 20010 kPa | 780.74
353.15 K, 100 kPa | 752.39
353.15 K, 1010 kPa | 753.65
353.15 K, 2010 kPa | 754.76
353.15 K, 2990 kPa | 755.86
353.15 K, 4000 kPa | 756.96
353.15 K, 5000 kPa | 758.04
353.15 K, 6000 kPa | 759.1
353.15 K, 7010 kPa | 760.14
353.15 K, 7990 kPa | 761.16
353.15 K, 8990 kPa | 762.2
353.15 K, 9990 kPa | 763.21
353.15 K, 11010 kPa | 764.2
353.15 K, 12010 kPa | 765.19
353.15 K, 13000 kPa | 766.16
353.15 K, 14010 kPa | 767.13
353.15 K, 15010 kPa | 768.07
353.15 K, 16010 kPa | 769.01
353.15 K, 17010 kPa | 769.94
353.15 K, 17990 kPa | 770.86
353.15 K, 18990 kPa | 771.76
353.15 K, 19990 kPa | 772.67
363.15 K, 100 kPa | 743.01
363.15 K, 1020 kPa | 744.08
363.15 K, 2030 kPa | 745.28
363.15 K, 3030 kPa | 746.48
363.15 K, 4020 kPa | 747.65
363.15 K, 5000 kPa | 748.81
363.15 K, 6020 kPa | 749.94
363.15 K, 7020 kPa | 751.07
363.15 K, 8010 kPa | 752.18
363.15 K, 9000 kPa | 753.27
363.15 K, 10030 kPa | 754.35
363.15 K, 11010 kPa | 755.41
363.15 K, 12010 kPa | 756.47
363.15 K, 13010 kPa | 757.5
363.15 K, 14000 kPa | 758.53
363.15 K, 15020 kPa | 759.54
363.15 K, 16010 kPa | 760.54
363.15 K, 17030 kPa | 761.52
363.15 K, 18010 kPa | 762.51
363.15 K, 19000 kPa | 763.47
363.15 K, 20020 kPa | 764.42
